Experimental data as given in US11033568B2, “Nicotinamide riboside compositions for topical use in treating skin conditions” (ChromaDex Inc., priority 2013, dated 2021).

Assays:
A431 cell line = assay: UV-C damage assay, cyclobutane pyrimidine dimer (CPD) ELISA; assay type: cell-based, human; conditions: for cyclobutane pyrimidine dimer (CPD) level vs. control: 2 h pre-treatment, 10 J/m^2 UVC
Protocol: The A431 cell line was seeded in 6-wells plate at a seeding density of 4×10^5 cells/well in 2 ml of culture media containing 10% FBS. The cells were left untreated as a control or treated with different concentrations of NR chloride in the media (5 mM and 1 mM) for 2 h under a fully humidified atmosphere containing 5% CO2 at 37° C. After incubation, culture media was replaced by PBS and cells were exposed to 10 J/m^2 UVC irradiation. Plates were harvested along with respective controls immediately after UVC exposure (Negative Control was cells without UV-C exposure while Positive Control was untreated Cells with UV-C exposure). DNA from cells in each condition was extracted and quantified by NanoDrop. DNA samples were then added in the ELISA plate at 100 ng/well conc. and amount of cyclobutane pyrimidine dimer (CPD) was estimated in the DNA samples using CPD-DNA estimation kits (OxiSelect™, Cell Biolabs, Inc., San Diego, USA) as per manufacturer's protocol.

[1] = tested on: A431 human epidermoid cells; assay: Oxidative damage protection assay (1 mM H2O2, alamar blue cell viability); assay type: cell-based; conditions: for percent cytoprotection: 1 mM H2O2, vs positive (H2O2) control
Protocol: A431 human epidermoid cells (ATCC #CRL1555) were grown in DMEM media supplemented with 10% FBS and 1% PenStrep in T75 flasks based on culture recommendations. The media was replaced every two-three days till >80% confluency was attained. The cells were trypsinized with 0.25% trypsin EDTA solution for 2-3 minutes until the cells were dislodged. The cells were sub-cultured in a ratio of 1:3 for further growth and scale-up for the assay. The cells were trypsinized and counted to a density of 5,000 or 15,000 cells and seeded in […], media/well in 96-well clear bottom black plates. The outer wells at the periphery of the plates were left unseeded and were instead filled with media to reduce the edge effect during incubation. The plates were incubated overnight in a humidified incubator at 37° C./5% CO2 to confirm that the cells were attached. The Nicotinamide Riboside chloride (NR chloride) was added at indicated final assay concentrations in the media either under pre-treatment for 24 h (without hydrogen peroxide) or along with 1 mM hydrogen peroxide for an incubation of 20 h in a humidified incubator at 37° C./5% CO2 either with media replenishment at 8 h or under growth synchronized conditions using 1% FBS. Each concentration was tested in 6 replicates. Appropriate controls: cells without compound and hydrogen peroxide (no cytotoxicity; negative control), cells without compound but in the presence of 1 mM hydrogen peroxide (positive control), wells with alamar blue alone (blank) were kept in each assay. Cell viability was graphed and data was represented as percent cytotoxicity for 1 mM H2O2 under a given assay condition with respect to negative (untreated control) cells or percent cytoprotection in the presence of the test compound calculated with respect to positive (1 mM H2O2) control.

NIH 3T3 fibroblasts = assay: Scratch wound healing assay (CytoSelect Wound Healing Assay Kit); assay type: cell-based, mouse
Protocol: NIH 3T3 fibroblasts were obtained from […]) and cultured in Dulbecco's modified Eagle's medium (DMEM) supplemented with 10% fetal bovine serum (FBS), 4 mM L-glutamine, 1% penicillin/streptomycin under a fully humidified atmosphere containing 5% CO2 at 37° C. For experiments, cells were collected from subconfluent monolayers with trypsin/EDTA. Cell viability was higher as 95% using trypan blue dye exclusion staining. The study was carried out using cells from passages 4-7 in DMEM medium containing 1% FBS. Untreated cells (1% FBS) were used as negative controls. The effect of nicotinamide riboside chloride (NR chloride) on wound closure in NIH 3T3 fibroblasts was investigated. Cell viability was determined by cell titer blue (Promega), wound closure by CytoSelectTM Wound Healing Assay Kit (Cell Biolabs, Inc., San Diego, USA). All conditions were performed in three independent, controlled experiments. […] Microscopic imaging of wound closure was analyzed using “Image J” software. […] Apart from microscopic observations, data was analyzed for the determination of total surface area of the defined wound area using “Image J” software. Surface area of the migrated cells into the wound area was calculated by subtracting surface area after 24 hour from total surface area of the wound at “0” hour. […]

[2] = cited from earlier work

| Compound | cyclobutane pyrimidine dimer (CPD) level vs. control (A431 cell line; +1 mM, 1.2 μg/ml DNA control) [%] | cyclobutane pyrimidine dimer (CPD) level vs. control (A431 cell line; +1 mM, 2.1 μg/ml DNA control) [%] | cyclobutane pyrimidine dimer (CPD) level vs. control (A431 cell line; +5 mM, 1.2 μg/ml DNA control) [%] | cyclobutane pyrimidine dimer (CPD) level vs. control (A431 cell line; +5 mM, 2.1 μg/ml DNA control) [%] | reduction of levels of CPDs (A431 cell line; expected) | percent cytoprotection ([1]; 0.04 mM, normal growth (10% FBS)) [%] | percent cytoprotection ([1]; 0.2 mM, growth synchronized (1% FBS)) [%] | percent cytoprotection ([1]; 0.2 mM, normal growth (10% FBS)) [%] | percent cytoprotection ([1]; 1 mM, growth synchronized (1% FBS)) [%] | percent cytoprotection ([1]; 1 mM, normal growth (10% FBS)) [%] | percent cytoprotection ([1]; 5 mM, growth synchronized (1% FBS)) [%] | reduction of oxidative damage-mediated cell death ([1]; expected) | reduction of oxidative damage-mediated cell death ([1]; summary over conditions, even in growth arrested condition) | gap closure (NIH 3T3 fibroblasts; 0.2 mM + 1% FBS) [%] | gap closure (NIH 3T3 fibroblasts; 1 mM + 1% FBS, 24 hour incubation) [%] | half life t1/2 ([2]; in blood) | oral bioavailability ([2]; in vivo, po) |
| --- | --- | --- | --- | --- | --- | --- | --- | --- | --- | --- | --- | --- | --- | --- | --- | --- | --- |
| NC(=O)c1ccc[n+]([C@@H]2O[C@H](CO)[C@@H](O)[C@H]2O)c1 [NR chloride, Nicotinamide Riboside chloride] | −32 | −41 | −34 | −50 | at least 10% | −1 | 2 | 8 | 15 | 23 | 38 | at least 10% | 10-40% | 13 | 46 |  |  |
| COc1cc(/C=C/c2ccc(O)cc2)cc(OC)c1 [pterostilbene, 3,5-dimethoxy-4′-hydroxy-trans-stilbene] |  |  |  |  |  |  |  |  |  |  |  |  |  |  |  | about 105 minutes | orally bioavailable |
